Among the data in ChEMBL document CHEMBL4364255, “3,4-Dideoxy-3,3,4,4-tetrafluoro- and 4-OH epimeric 3-deoxy-3,3-difluoro-α-GalCer analogues: Synthesis and biological evaluation on human iNKT cells stimulation” (Eur J Med Chem, 2019) are Activity values, retold here.

Structures are written as SMILES. Active and inactive are the calls of the source. No cut-off for these calls is given here.

The test system of the first data set is iNKT. As to the kind of experiment: Effect on human iNKT MAD11 cells stimulation assessed as increase in IL-13 production pretreated with HeLa cells for overnight prior to iNKT MAD11 cells addition and measured after 24 hrs by ELISA. It counts as cell-based. (In general: In an ELISA, binding on a coated surface is turned into a signal by an enzyme label.)
Take `CCCCCCCCCCCCCCCCCCCCCCCCCC(=O)N[C@@H](CO[C@H]1O[C@H](CO)[C@H](O)[C@H](O)[C@H]1O)[C@H](O)[C@H](O)CCCCCCCCCCCCCC` [RGI-7000]: the Activity result is “Non-Toxic”.
Still for that read-out and setting: to `CCCCCCCCCCCCCCCCCCCCCCCCCC(=O)N[C@@H](CO[C@H]1O[C@H](CO)[C@H](O)[C@H](O)[C@H]1O)C(F)(F)[C@@H](O)CCCCCCCCCCCCCC` belongs “Non-Toxic”; to `CCCCCCCCCCCCCCCCCCCCCCCCCC(=O)N[C@@H](CO[C@H]1O[C@H](CO)[C@H](O)[C@H](O)[C@H]1O)C(F)(F)[C@H](O)CCCCCCCCCCCCCC`, “Non-Toxic”.
On the same count and under the same terms, to `CCCCCCCCCCCCCCCCCCCCCCCCCC(=O)N[C@@H](CO[C@H]1O[C@H](CO)[C@H](O)[C@H](O)[C@H]1O)C(F)(F)C(F)(F)CCCCCCCCCCCCCC` belongs “Non-Toxic”.

The next data set deals with T1, Antigen-presenting glycoprotein CD1d (Homo sapiens) (UniProt P15813).
T1 sequence (whole entry): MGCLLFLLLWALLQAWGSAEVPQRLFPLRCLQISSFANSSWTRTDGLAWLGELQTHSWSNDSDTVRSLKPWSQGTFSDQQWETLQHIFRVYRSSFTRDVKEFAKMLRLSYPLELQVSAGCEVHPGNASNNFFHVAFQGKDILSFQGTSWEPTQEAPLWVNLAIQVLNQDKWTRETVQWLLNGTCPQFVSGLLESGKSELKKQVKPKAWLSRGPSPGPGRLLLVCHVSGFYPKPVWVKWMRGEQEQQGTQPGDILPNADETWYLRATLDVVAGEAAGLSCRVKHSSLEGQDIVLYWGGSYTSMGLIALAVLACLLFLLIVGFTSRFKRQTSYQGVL
As to the kind of experiment: Binding affinity to human CD1d expressed in human HeLa cells assessed as increase in IFNgamma production at 10 uM to 10^-4 uM incubated overnight prior to iNKT MAD11 cells addition to CD1d-compound mixture and measured after 6 hrs by ELISA. The data set is classed as cell-based.
With `CCCCCCCCCCCCCCCCCCCCCCCCCC(=O)N[C@@H](CO[C@H]1O[C@H](CO)[C@H](O)[C@H](O)[C@H]1O)[C@H](O)[C@H](O)CCCCCCCCCCCCCC` [RGI-7000], the result was Active.
The same measure, in the same setting: to `CCCCCCCCCCCCCCCCCCCCCCCCCC(=O)N[C@@H](CO[C@H]1O[C@H](CO)[C@H](O)[C@H](O)[C@H]1O)C(F)(F)[C@@H](O)CCCCCCCCCCCCCC` belongs “Active”; to `CCCCCCCCCCCCCCCCCCCCCCCCCC(=O)N[C@@H](CO[C@H]1O[C@H](CO)[C@H](O)[C@H](O)[C@H]1O)C(F)(F)[C@H](O)CCCCCCCCCCCCCC`, “Active”.
Still for that read-out and setting: to `CCCCCCCCCCCCCCCCCCCCCCCCCC(=O)N[C@@H](CO[C@H]1O[C@H](CO)[C@H](O)[C@H](O)[C@H]1O)C(F)(F)C(F)(F)CCCCCCCCCCCCCC` belongs “Active”.

Another data set concerns iNKT. As to the kind of experiment: Effect on human iNKT MAD11 cells stimulation assessed as increase in IFNgamma production pretreated with HeLa cells for overnight prior to iNKT MAD11 cells addition and measured after 6 hrs by ELISA. The data set is classed as cell-based.
With `CCCCCCCCCCCCCCCCCCCCCCCCCC(=O)N[C@@H](CO[C@H]1O[C@H](CO)[C@H](O)[C@H](O)[C@H]1O)[C@H](O)[C@H](O)CCCCCCCCCCCCCC` [RGI-7000], the Activity entry is on record as “Non-Toxic”.
Same read-out and setting: for `CCCCCCCCCCCCCCCCCCCCCCCCCC(=O)N[C@@H](CO[C@H]1O[C@H](CO)[C@H](O)[C@H](O)[C@H]1O)C(F)(F)[C@@H](O)CCCCCCCCCCCCCC` the value was “Non-Toxic”; for `CCCCCCCCCCCCCCCCCCCCCCCCCC(=O)N[C@@H](CO[C@H]1O[C@H](CO)[C@H](O)[C@H](O)[C@H]1O)C(F)(F)[C@H](O)CCCCCCCCCCCCCC`, “Non-Toxic”; for `CCCCCCCCCCCCCCCCCCCCCCCCCC(=O)N[C@@H](CO[C@H]1O[C@H](CO)[C@H](O)[C@H](O)[C@H]1O)C(F)(F)C(F)(F)CCCCCCCCCCCCCC`, “Non-Toxic”.

In a further data set the target is T1, Antigen-presenting glycoprotein CD1d (Homo sapiens). Description: Binding affinity to human CD1d expressed in human HeLa cells assessed as increase in IL-13 production at 10 uM to 10^-4 uM incubated overnight prior to iNKT MAD11 cells addition to CD1d-compound mixture and measured after 24 hrs by ELISA. The data set is classed as cell-based.
As to `CCCCCCCCCCCCCCCCCCCCCCCCCC(=O)N[C@@H](CO[C@H]1O[C@H](CO)[C@H](O)[C@H](O)[C@H]1O)[C@H](O)[C@H](O)CCCCCCCCCCCCCC` [RGI-7000], the outcome was Active.
With `CCCCCCCCCCCCCCCCCCCCCCCCCC(=O)N[C@@H](CO[C@H]1O[C@H](CO)[C@H](O)[C@H](O)[C@H]1O)C(F)(F)[C@@H](O)CCCCCCCCCCCCCC`, the outcome was Active.
On the same count and under the same terms, to `CCCCCCCCCCCCCCCCCCCCCCCCCC(=O)N[C@@H](CO[C@H]1O[C@H](CO)[C@H](O)[C@H](O)[C@H]1O)C(F)(F)[C@H](O)CCCCCCCCCCCCCC` belongs “Active”.
The same measure, in the same setting: to `CCCCCCCCCCCCCCCCCCCCCCCCCC(=O)N[C@@H](CO[C@H]1O[C@H](CO)[C@H](O)[C@H](O)[C@H]1O)C(F)(F)C(F)(F)CCCCCCCCCCCCCC` belongs “Active”.
